Laboratory results as given in patent US20070082942A1, “Prevention of hiv-1 infection by inhibition of rho-mediated reorganization and/or content alteration of cell membrane raft” (priority 2003, published 2007).

Columns and labels:
[1] = test system: HIV-1 LTR-driven promoter; assay: LTR-driven gene expression; conditions: for Reversal of lovastatin-induced increase in LTR-driven transcription: supplementation with lovastatin
Method: LTR-driven gene expression. Jurkat cells transfected with pLTR-luc (Schwartz, O. et al (1990) Gene 88:197-205), pcDNA-tat and the promoterless renilla luciferase plasmid were treated at 4 h post-transfection with inhibitors and metabolites at the indicated concentrations (see HIV-1. infections section). Relative luciferase units (RLU) were calculated as the ratio between firefly and renilla activity after 48 h.

[2] = test system: replication-defective NL4-3 virus pseudotyped with HIV-1ADA envelope; type: cell-based; conditions: for Entry of R5-pseudotyped virus: MT2-CCR5 cells treated with 10 μM compound, 48 h, FIG. 6A, 7B
Rho = Rho activation assay; type: cell-based; conditions: FIG. 8C
Method: Rho and Rac activation assay. […] At times indicated, cells were washed with ice-cold PBS and lysates prepared using Rho or Rac activation assay kits (Upstate Biotechnology). GTP-bound Rho was precipitated with RBD-agarose beads and GTP-Rac with PBD-agarose beads. Activated Rho or Rac were measured in pellets by Western blot with specific antibodies, using crude cell extracts for normalization. Densitometry was performed using NIH Image software.

[3] = test system: gp120 with the HIV-1 receptors CD4 and CXCR4; assay: gp120-induced patching; conditions: for Restoration of patch size and gp120-CXCR4 co-localization in lovastatin-treated cells: addition to lovastatin-treated cells
[4] = test system: replication-defective NL4-3 virus pseudotyped with VSV envelope; type: cell-based, vesicular stomatitis virus
MT2-CCR5 cells = assay: Cell cholesterol mass determination; conditions: lovastatin-treated MT2-CCR5 cells; FIG. 7C
X4 (NL4-3) HIV-1 strain = assay: HIV-1 infection of PHA-activated human PBMC, p24 antigen, X4 strain; type: cell-based
Method: (§1) Treated PBMC were incubated with NL4-3 or BaL viral stocks (1 or 10 ng p24 antigen/10^6 cells; 3 h, 37° C.). Cell-free supernatants were collected daily from cultured cells (0.5×10^6/ml) and tested for p24 antigen (Coulter).

[5] = test system: VSV-G-pseudotyped virus produced by HEK 293T cells; type: cell-based, vesicular stomatitis virus
R5 (BaL) HIV-1 strain = assay: HIV-1 infection of PHA-activated human PBMC, p24 antigen, R5 strain; type: cell-based
Method: as §1

HIV-1 = assay: Lovastatin treatment of HIV-1-infected patients; type: in vivo, human; conditions: Table I
HIV-1 NL4-3 = assay: Murine SCID-hu-PBMC model of HIV-1 infection; type: in vivo, CB.17 SCID/SCID mice
[6] = test system: X4-pseudotyped replication-defective HIV-1 NL4-3 variant; type: cell-based; conditions: 10 μM lovastatin; not shown
grafted human PBMC = conditions: mouse, in vivo
[7] = test system: HIV-1-pseudotyped virus produced by HEK 293T cells; type: cell-based
Gag = conditions: cells expressing the peptide
Luc-Ada viral particles = assay: Production of Luc-Ada viral particles in cells expressing raft-targeted protease peptide; conditions: cells expressing the peptide; FIG. 8B as printed
[8] = lovastatin-treated PBMC, FIG. 8A

For `CC(C)=CCC/C(C)=C/CC/C(C)=C/COP(=O)(O)OP(=O)(O)O` [FPP, famesylpyrophosphate], the “Reversal of lovastatin-induced increase in LTR-driven transcription” value ([1]; MT2-CCR5 cells, FIG. 7D) was “not” and the “Reversal of lovastatin-induced inhibition of HIV-1 entry” value [2] was “not”.

In the case of `CC(C)=CCC/C(C)=C/CC/C(C)=C/CC/C(C)=C/COP(=O)(O)OP(=O)(O)O` [GGPP, geranylgeranylpyrophosphate], the “Reversal of lovastatin inhibition of HIV-1-induced Rho activation” value (Rho; co-incubation with lovastatin) is reported as “reversed”, the “Reversal of lovastatin-induced increase in LTR-driven transcription” value ([1]; MT2-CCR5 cells, FIG. 7D) is reported as “reversed” and the “Reversal of lovastatin-induced inhibition of HIV-1 entry” value [2] is reported as “reversed”.

For `CC(C)CCC[C@@H](C)[C@H]1CC[C@H]2[C@@H]3CC=C4C[C@@H](O)CC[C@]4(C)[C@H]3CC[C@]12C` [cholesterol], the “Reversal of lovastatin-induced increase in LTR-driven transcription” value ([1]; MT2-CCR5 cells, FIG. 7D) was “not”, the “Restoration of patch size and gp120-CXCR4 co-localization in lovastatin-treated cells” value ([3]; FIG. 8A) was “not” and the “Reversal of lovastatin-induced inhibition of HIV-1 entry” value [2] was “not”.

`COC(=O)[C@H](CCSC)NC(=O)c1ccc(NC[C@@H](N)CS)cc1-c1ccccc1` [farnesyl transferase inhibitor] was tested, and the “Entry of VSV-pseudotyped virus” value [4] was “did not affect” and the “Entry of R5-pseudotyped virus” value [2] was “not”.

For `COC(=O)[C@H](CC(C)C)NC(=O)c1ccc(NC[C@@H](N)CS)cc1-c1ccccc1` [geranylgeranyl transferase inhibitor], the “Entry of VSV-pseudotyped virus” value [4] was “did not affect”, the “HIV transcription (LTR-driven)” value ([1]; MT2-CCR5 cells, FIG. 7D) was “increased” and the “Entry of R5-pseudotyped virus” value [2] was “inhibited”.

For `CC[C@H](C)C(=O)O[C@H]1C[C@@H](C)C=C2C=C[C@H](C)[C@H](CC[C@@H]3C[C@@H](O)CC(=O)O3)[C@H]21` [lovastatin], the “HIV-1-induced Rho activation” value (Rho; MT2-CCR5 cells incubated with lovastatin prior to virus exposure) was “inhibited”, the “HIV-1 LTR-driven promoter activity” value ([1]; Jurkat cells, FIG. 6C) was “increased” and the Cholesteryl ester mass (MT2-CCR5 cells) was “drastically reduced”. For the same molecule, the “Free cholesterol levels vs untreated cells” value (MT2-CCR5 cells) was “comparable”, the “HIV-1 replication (p24 antigen production)” value (X4 (NL4-3) HIV-1 strain; PBMC pretreated 48 h with 10 μM lovastatin, X4 (NL4-3)-infected cultures, FIG. 5A) was “reduced p24 antigen production” and the “gp120 binding to CD4” value ([3]; lovastatin-treated PBMC) was “did not affect”. The “Co-localization between gp120 and CXCR4” value [3, 8] was “drastically reduced”, the “gp120 patch size vs untreated cells” value [3, 8] was “smaller gp120 patches” and the VSV-G-pseudotyped viral production [5] was “not that of VSV-G-pseudotyped viruses”. For the same molecule, the “HIV-1 replication (p24 antigen production)” value (R5 (BaL) HIV-1 strain; PBMC pretreated 48 h with 10 μM lovastatin, R5 (BaL)-infected cultures, FIG. 5A) was “reduced p24 antigen production”, the “Serum viral RNA loads” value (HIV-1; six A1 stage non-HAART patients, 40 mg/day oral, one month, sole therapy) was “clear reduction” and the “Viral load after discontinuation of treatment” value (HIV-1; three months after termination of treatment) was “rebound”. The “Virus rescue by co-culture of peritoneal cells with PHA-activated human PBMC” value (HIV-1 NL4-3; cells from two mice with undetectable viral RNA) was “did not rescue virus”, the “Mice with undetectable viral RNA in plasma” value (HIV-1 NL4-3; lovastatin i.p. 5 mg/kg every three days) was 4 of 10 and the “Mean viral load (plasma HIV-1 RNA)” value (HIV-1 NL4-3; lovastatin i.p. 5 mg/kg every three days, one week post-infection, vs vehicle, FIG. 5C) was “significantly reduced”. For the same molecule, the “CD4+ T cell counts vs controls” value (HIV-1 NL4-3; one week post-infection) was “higher”, the “Entry of X4-pseudotyped virus” value [6] was “inhibited entry” and the “Number of labeled cells or labeling intensity” value (grafted human PBMC) was “No difference”. The HIV-1-pseudotyped viral production [7] was “reduced” and the “Entry of R5-pseudotyped virus” value [2] was “inhibited entry”.

L-mevalonate was tested, and the “Reversal of lovastatin-induced increase in LTR-driven promoter activity” value ([1]; Jurkat cells, co-incubation with lovastatin, FIG. 6C) was “reversed”, the “Reversal of lovastatin effect on p24 production” value (X4 (NL4-3) HIV-1 strain; co-incubation with lovastatin, X4-infected cultures) was “reversed” and the “Restoration of patch size and gp120-CXCR4 co-localization in lovastatin-treated cells” value ([3]; FIG. 8A) was “restored”. The “Reversal of lovastatin effect on p24 production” value (R5 (BaL) HIV-1 strain; co-incubation with lovastatin, R5-infected cultures) was “reversed”, the “Reversal of lovastatin-induced reduction of viral production” value ([7]; co-incubation with lovastatin, FIG. 6B) was “reversed” and the “Reversal of lovastatin-induced inhibition of HIV-1 entry” value [2] was “reversed”.

For MGCGCSSHPEDDISYEL [SEQ. ID. NO: 21], the Gag processing (Gag) was “severely attenuated” and the “Production of Luc-Ada viral particles” value (Luc-Ada viral particles) was “severely diminished”.
